Source: patent US10294217B2, “Fluoroindole derivatives as muscarinic M1 receptor positive allosteric modulators” (Suven Life Sciences Limited, priority 2015, dated 2019)

Key:
[1] = test system: Male Wistar rats; test: Object recognition task model - scopolamine challenge; format: in vivo; details: p.o.; for Exploration time Familiar object / Exploration time Novel object: mean ± S.E.M, choice trial 3 minutes after T1
Experimental: Object Recognition Task Model—Scopolamine challenge
The cognition enhancing properties of compounds of this invention were estimated by using this model.
Male Wistar rats (8-10 weeks old) were used as experimental animals. Four animals were housed in each cage. Animals were kept on 20% food deprivation from a day prior to experimentation. Water was provided ad libitum throughout the experiment. Animals were maintained on a 12 hours light/dark cycle in temperature and humidity controlled room. The experiment was carried out in an open field made up of acrylic. Rats were habituated to individual arenas (open field) for 1 hour in the absence of any objects on day 1.
Rats received vehicle or vehicle and scopolamine or compound of the formula (I) and scopolamine, before the familiar (T1). During the familiarization phase, (T1), the rats were placed individually in the arena for 3 minutes, in which two identical objects (a1 and a2) were positioned 10 cm from the wall. 3 minutes after T1, trial for memory test was performed. The same rats were placed in the same arena as they were placed in T1 trial. During the choice phase (T2) rats were allowed to explore the arena for 3 minutes in presence of a copy of familiar object (a3) and one novel object (b). During the T1 and T2 trial, explorations of each object (defined as sniffing, licking, chewing or having moving vibrissae whilst directing the nose towards the object at a distance of less than 1 cm) were recorded using stopwatch. • T1 is the total time spent exploring the familiar objects (a1+a2). • T2 is the total time spent exploring the familiar object and novel object (a3+b). • Discriminative index=Time spent with novel object/(time spent with novel and familiar object).

[2] = test system: cerebral blood flow in the frontal cortex; test: Modulation of cerebral blood flow in frontal cortex; format: in vivo; details: anaesthetized rats, intravenous, Laser Doppler, FIG. 2
Experimental: Modulation of Cerebral Blood Flow in Frontal Cortex:
The effect of test compound on modulation of cerebral blood flow was evaluated using rats.
Rats were acclimatized to the laboratory environment for at least 7 days. Rats (300-350 grams) were housed in a group of four in a controlled environment (Temp=21±3° C.; Humidity=30-70%) and maintained on a 12-hour light/dark cycle with lights on at 07:00 AM. Food and water was provided ad libitum.
Rats were anaesthetized with 12% urethane (i.p.). Animal's body core temperature was maintained at 37° C. via heating pad and rectal temperature probe. A small incision was made at one of the ventral side of the hind limb and the femoral vein was cannulated with PE10 tubing for drug application. Then animal was placed into a stereotaxic frame and a midline incision was made to expose the skull. A burr hole was drilled over the frontal cortex (stereotaxic coordinates 1 mm anterior and 4 mm lateral to bregma). Oxygen was supplied through the nose cone of the seterotaxic apparatus which was connected to the controlled gaseous supplier with a flow of 200 mL/minute. Laser Doppler probe (AD Instruments Inc) was placed over the hole to monitor cerebral blood flow. […] Data obtained was calculated as percent increase relative to resting basal blood flow level. […]

Row | SMILES | Inference ([1]; 1 mg/kg) | Exploration time Familiar object ([1]; 1 mg/kg) [s] | Exploration time Novel object ([1]; 1 mg/kg) [s] | Inference ([1]; 0.3 mg/kg) | Exploration time Familiar object ([1]; 0.3 mg/kg) [s] | Exploration time Novel object ([1]; 0.3 mg/kg) [s] | cerebral blood flow [2]
1 | Cl.O=C(N[C@H]1CCNC[C@H]1F)c1cn(Cc2ccnc(F)c2)c2c(F)ccc(F)c12 (single isomer, unassigned; isomer-i) [Example 22, Cis-N-(3-Fluoropiperidin-4-yl)-1-(2-fluoropyridin-4-ylmethyl)-4,7-difluoro-1H-indole-3-carboxamide hydrochloride (Isomer-I)] | Active | 21.34 ± 3.65 | 29.70 ± 1.72 |  |  |  | 
2 | Cn1cc(Cn2cc(C(=O)N[C@H]3CCCC[C@@H]3O)c3c(F)cccc32)cn1 [Example 1, N-[(1S,2S)-2-Hydroxycyclohexyl]-1-(1-methyl-1H-pyrazol-4-ylmethyl)-4-fluoro-1H-indole-3-carboxamide] |  |  |  | Active | 7.54 ± 1.93 | 13.07 ± 1.79 | significantly increased the cerebral blood flow
3 | O=C(N[C@H]1CCCC[C@@H]1O)c1cn(Cc2ccnc(Cl)c2)c2cccc(F)c12 [Example 2, N-[(1S,2S)-2-Hydroxycyclohexyl]-1-(2-chloropyridin-4-ylmethyl)-4-fluoro-1H-indole-3-carboxamide] |  |  |  | Active | 14.29 ± 1.92 | 20.93 ± 2.89 | 
4 | Cn1cc(Cn2cc(C(=O)N[C@H]3CCCC[C@@H]3O)c3c(F)ccc(F)c32)cn1 [Example 5, N-[(1S,2S)-2-Hydroxycyclohexyl]-1-(1-methyl-1H-pyrazol-4-ylmethyl)-4,7-difluoro-1H-indole-3-carboxamide] | Active | 13.61 ± 1.79 | 25.72 ± 3.67 |  |  |  | 
